Entries after “also recorded” stand apart in the source; their conditions may differ.

Data set [1] has as its system human fetal bone mesenchymal cells. Briefly: Morphology of mesenchymal cells in co-culture. Format: cell-based. As to conditions: co-culture without direct contact; EPED3 2 mM, Velcade 0.5 mM. The protocol:
FIGS. 11A-11F compare the morphological features of EPED3 and Velcade induced apoptosis in myeloma cells and normal mesenchymal cells. JJN3 myeloma cell line and human fetal bone mesenchymal cells were co-cultured without direct contact between cell types. EPED3 (2 mM) and Velcade (0.5 mM) were added to the cultures; control cells were untreated. Live cell cultures were photographed 3 days after initiating treatment (400× magnification under Olympus invert-microscope with RT-Color SPOT digital camera and the software, Diagnostic Instrument Inc. Sterling Heights, Mich.). In comparison to cell morphology of non-treated JJN3 cells, myeloma cells were destroyed under both EPED3 (FIG. 11E) and Velcade (FIG. 11F) treatments as the appearance of cell shrinkage, and the formation of phagozytosed apoptotic bodies (arrows); in comparison to no treatment, mesenchymal cells were also destroyed by Velcade treatment as the appearance of cell shrinkage, and the formation of phagozytosed apoptotic bodies (arrows) (FIG. 1C) but not by EPED3 treatment (FIG. 11B).
The monolayer human fetal bone mesenchymal cells were established from live bone chips (Advanced Bioscience Resources Inc, Alameda, Calif.) in complete RPMI-1640 medium. The medium was the same as described above. The cells were trypsinized and seeded in 6-well plates, and then allowed to reach 75% confluence. […]

For data set [2], the system named is RPMI8226 myeloma cell line. Briefly: CellTiter-Glo luminescent cell viability assay, RPMI8226. Format: cell-based, human. Set-up: unit of the concentration uncertain. The method, then: The dosage of each derivative was set at 2, 0.2 and 0.02 mM. A cell culture medium control and 0.5% DMSO control was maintained in each experiment. The cell viability was tested each day over a period of five days using the CellTiter-Glo luminescent cell viability assay kit from Promega Co.
Cell Titer-Glo luminescent cell viability assay kit from Promega Co (Madison, Wis.) was used to determine cell growth inhibition by the various compounds tested. The kit determines cell viability by quantifying the amount of ATP present in the cell culture medium. Presence of ATP signals the presence of metabolically active cells (3). The intensity of luminescence was measured by a computerized luminometer (Promega, Co. Madison, Wis.). Each well was read five times within 30 minutes of adding Cell Titer-Glo reagent mixture. […]
(In general: Cellular ATP, detected with luciferase, serves as a proxy for viable cell number.)

The test system of data set [3] is myeloma cell lines ARK, KMS11, RPMI 8226, and U266. The experiment in a line: In vitro screening of DTP compounds on myeloma cell lines (CellTiter-Glo). Format: cell-based, human. Also noted: effect on myeloma cell growth among tested ellipticine derivatives: dose or concentration left out as unconfirmed. The method, then:
Eight myeloma cell lines were contacted with the antineoplastic agents to be tested in ninety six well culture plates. […]
Myeloma cell lines were maintained at >90% viability at 37° C. and 5% CO2. Cells were diluted to 20,000 cells/ml in fresh medium. A 50-μl aliquot of cell suspension was seeded in 96-well tissue culture plates to final cell counts of 1,000 cells/well. All compounds obtained from NCI's Developmental Therapeutics Program (DTP compounds) were dissolved in 100% dimethylsulfoxide (DMSO) (Sigma-Aldrich, St. Louis, Mo.) at 1 mg/ml and further diluted in fresh medium to 1 μg/ml. Each compound (50-μl aliquots) was distributed to a well containing 1,000 myeloma cells. Each plate included controls with addition of only medium or only DMSO (0.5% final concentration). All experiments were conducted in triplicate.
Using CellTiter-Glo Luminescent Assay kit (Promega, Madison, Wis.) according to manufacturer's instructions, cell viability was assayed every 24 hours after addition of DTP compound for 5 days. Briefly, the CellTiter-Glo substrate was dissolved in buffer, and 100 μl was added to each well. […] The statistic sampling distribution for each compound per cell line was based on sample of n=15 measurements.
Other ellipticine derivatives from the DTP (at 0.5 mM final concentration) were used to screen the same four myeloma cell lines.

Another data set has as its system NCI-60 cancer panel. As to conditions: average across the cell lines of the concentration at which growth is inhibited 50%; unit in the High Conc. footnote; cited from earlier work.
The conditions of data set [4]: NCI in vivo screening data; cited from earlier work.
The conditions of data set [5]: 50 mg/kg; intraperitoneal injection; P388 Leukemia-bearing CD2F1 mice; cited from earlier work.

For the compound `CC(C)C[C@H](NC(=O)[C@H](Cc1ccccc1)NC(=O)c1cnccn1)B(O)O` [Velcade, bortezomib, reference compound], in data set [1], the “morphological damage of mesenchymal cells” value is “severe destruction of the mesenchymal cells”.

Regarding `Cc1c2ccncc2c(C)c2c1[nH]c1ccc(OCCN(C)C)cc12` [NSC 338258, ellipticine, 9-dimethyl amino-ethoxy-], the “cell viability (CellTiter-Glo luminescent assay)” value in data set [2] (0.02 (unit uncertain), Day 1) is 94,826; in data set [2] (0.02 (unit uncertain), Day 2) it was 180,382; in data set [2] (0.02 (unit uncertain), Day 3), 302,609; in data set [2] (0.02 (unit uncertain), Day 4), 516,569; in data set [2] (0.02 (unit uncertain), Day 5), 777,427; in data set [2] (0.2 (unit uncertain), Day 1) it was 3,790. Besides, the “cell viability (CellTiter-Glo luminescent assay)” value is reported as 2,320 in data set [2] (0.2 (unit uncertain), Day 2); 1,254 in data set [2] (0.2 (unit uncertain), Day 3); 1,026 in data set [2] (0.2 (unit uncertain), Day 4); 321 in data set [2] (0.2 (unit uncertain), Day 5); 4,685 in data set [2] (2 (unit uncertain), Day 1); 923 in data set [2] (2 (unit uncertain), Day 2). Moreover, the “cell viability (CellTiter-Glo luminescent assay)” value in data set [2] (2 (unit uncertain), Day 3) amounted to 871; in data set [2] (2 (unit uncertain), Day 4), 234; in data set [2] (2 (unit uncertain), Day 5), 104. For the same compound, the “inhibition of cell viability in four myeloma cell lines” value in data set [3] (0.5 mg/ml, every 24 hours over 5 days) is on record as “most significantly inhibited cell viability; also recorded: significant anti-myeloma effect”. Moreover, in data set [3] (four myeloma cell lines), the “effect on myeloma cell growth among tested ellipticine derivatives” value is “best among the tested ellipticine derivatives”. The “effective invitro dosage (cell growth inhibition)” value in data set [3] (myeloma cell lines) was determined as 0.2 µM. In the data set on NCI-60 cancer panel, the “Mean GI50” value is −6.57 log^10 molar. Moreover, the “dosages for animals surviving the toxicity of the compounds” value in data set [4] is 25.0 mg/kg body weight. Further, the “animals survived EPED3 toxicity for at least 5 days” value in data set [5] is recorded as “five out of six”.

The values are drawn from patent publication US20070027175A1, “Antineoplastic activities of ellipticine and its derivatives” (priority 2005, published 2007).
